Measured values published in EP2706123A1, “In vitro method for determining genotoxic and non-genotoxic carcinogenicity of a compound” (Rijksinstituut Voor Volksgezondheid En Milieu, priority 2012, dated 2014).
Several values for one entry are separate records, joined by “and”; a condition that tells them apart may be missing. Identical values can stand only once.

test system: Nup62; assay: Expression level of marker gene Nup62 in liver of mice exposed for 7 days (microarray); conditions: mouse liver, 7 days exposure, average of 3 - 4 independent repeat experiments; negative value = underexpression (negative inverse of Ratio); dose and route per compound in Table 8

Compound	Average Fold Changes of the expression level of marker gene Nup62
CC(C)CCCCCCCOC(=O)c1ccccc1C(=O)OCCCCCCCC(C)C [NC_DIDP, Diisodecyl phthalate]	-1,03
CCCCC(CC)COC(=O)c1ccccc1C(=O)OCC(CC)CCCC (stereo not shown) [NGTXC_DEHP, Di(2-ethylhexyl)phthalate]	1,03
CC/C(=C(/CC)c1ccc(O)cc1)c1ccc(O)cc1 [NGTXC_DES, Diethylstillbestrol]	-1,07
CCC1(c2ccccc2)C(=O)NC(=O)NC1=O [NGTXC_PBB, Phenobarbital]	1,00

same assay, conditions: mouse liver, 7 days exposure, one animal per table line (suffix of Exposure label = animal number); negative value = underexpression

Compound	Fold Change of expression of Nup62 in individual animals
CCOc1ccc(NC(C)=O)cc1 [GTXC_Phe, Phenacetin]	-1,46978 and -1,41748 and -1,3917 and -1,33382
CC(C)CCCCCCCOC(=O)c1ccccc1C(=O)OCCCCCCCC(C)C [NC_DIDP, Diisodecyl phthalate]	1,082226 and -1,02869 and 1,206993 and -1,44589
CCCCC(CC)COC(=O)c1ccccc1C(=O)OCC(CC)CCCC (stereo not shown) [NGTXC_DEHP, Di(2-ethylhexyl)phthalate]	1,166832 and 1,023361 and -1,1264 and 1,077398
CC/C(=C(/CC)c1ccc(O)cc1)c1ccc(O)cc1 [NGTXC_DES, Diethylstillbestrol]	-1,56356 and 1,18178 and -1,04186 and 1,041463
CCC1(c2ccccc2)C(=O)NC(=O)NC1=O [NGTXC_PBB, Phenobarbital]	-1,18737 and -1,21348 and 1,070337 and 1,356669

test system: Anks4b; assay: Expression level of marker gene Anks4b in liver of mice exposed for 7 days (microarray); conditions: mouse liver, 7 days exposure, average of 3 - 4 independent repeat experiments; negative value = underexpression (negative inverse of Ratio); dose and route per compound in Table 8

Compound	Average Fold Changes of the expression level of marker gene Anks4b
CC(C)CCCCCCCOC(=O)c1ccccc1C(=O)OCCCCCCCC(C)C [NC_DIDP, Diisodecyl phthalate]	1,17
CCCCC(CC)COC(=O)c1ccccc1C(=O)OCC(CC)CCCC (stereo not shown) [NGTXC_DEHP, Di(2-ethylhexyl)phthalate]	-1,13
CC/C(=C(/CC)c1ccc(O)cc1)c1ccc(O)cc1 [NGTXC_DES, Diethylstillbestrol]	-1,02
CCC1(c2ccccc2)C(=O)NC(=O)NC1=O [NGTXC_PBB, Phenobarbital]	1,47

same assay, conditions: mouse liver, 7 days exposure, one animal per table line (suffix of Exposure label = animal number); negative value = underexpression

Compound	Fold Change of expression of Anks4b in individual animals
CCOc1ccc(NC(C)=O)cc1 [GTXC_Phe, Phenacetin]	1,592469 and 1,221871 and 1,552723 and 1,512243
CC(C)CCCCCCCOC(=O)c1ccccc1C(=O)OCCCCCCCC(C)C [NC_DIDP, Diisodecyl phthalate]	1,254408 and -1,44863 and 1,229508 and 1,74936
CCCCC(CC)COC(=O)c1ccccc1C(=O)OCC(CC)CCCC (stereo not shown) [NGTXC_DEHP, Di(2-ethylhexyl)phthalate]	-1,08 and -1,18919 and 1,270926 and -1,59617
CC/C(=C(/CC)c1ccc(O)cc1)c1ccc(O)cc1 [NGTXC_DES, Diethylstillbestrol]	1,020605 and 1,193296 and -1,09903 and -1,20697
CCC1(c2ccccc2)C(=O)NC(=O)NC1=O [NGTXC_PBB, Phenobarbital]	1,857325 and 1,468237 and 1,631778 and 1,048775

test system: Zbtb16; assay: Expression level of marker gene Zbtb16 in liver of mice exposed for 7 days (microarray); conditions: mouse liver, 7 days exposure, average of 3 - 4 independent repeat experiments; negative value = underexpression (negative inverse of Ratio); dose and route per compound in Table 8

Compound	Average Fold Changes of the expression level of marker gene Zbtb16
CC(C)CCCCCCCOC(=O)c1ccccc1C(=O)OCCCCCCCC(C)C [NC_DIDP, Diisodecyl phthalate]	-1,37
CCCCC(CC)COC(=O)c1ccccc1C(=O)OCC(CC)CCCC (stereo not shown) [NGTXC_DEHP, Di(2-ethylhexyl)phthalate]	-1,19
CC/C(=C(/CC)c1ccc(O)cc1)c1ccc(O)cc1 [NGTXC_DES, Diethylstillbestrol]	-1,15
CCC1(c2ccccc2)C(=O)NC(=O)NC1=O [NGTXC_PBB, Phenobarbital]	-1,59

same assay, conditions: mouse liver, 7 days exposure, one animal per table line (suffix of Exposure label = animal number); negative value = underexpression

Compound	Fold Change of expression of Zbtb16 in individual animals
CCOc1ccc(NC(C)=O)cc1 [GTXC_Phe, Phenacetin]	-4,26686 and -1,26966 and -2,10594 and -2,30082
CC(C)CCCCCCCOC(=O)c1ccccc1C(=O)OCCCCCCCC(C)C [NC_DIDP, Diisodecyl phthalate]	1,045284 and -1,02838 and -1,15546 and -3,11558
CCCCC(CC)COC(=O)c1ccccc1C(=O)OCC(CC)CCCC (stereo not shown) [NGTXC_DEHP, Di(2-ethylhexyl)phthalate]	-1,41583 and 1,601817 and -2,52071 and 1,114567
CC/C(=C(/CC)c1ccc(O)cc1)c1ccc(O)cc1 [NGTXC_DES, Diethylstillbestrol]	-1,72326 and 1,430939 and 1,400903 and -2,03597
CCC1(c2ccccc2)C(=O)NC(=O)NC1=O [NGTXC_PBB, Phenobarbital]	-2,34418 and -1,15391 and -1,99396 and -1,17093

test system: Cyp17a1; assay: Expression level of marker gene Cyp17a1 in liver of mice exposed for 7 days (microarray); conditions: mouse liver, 7 days exposure, average of 3 - 4 independent repeat experiments; negative value = underexpression (negative inverse of Ratio); dose and route per compound in Table 8

Compound	Average Fold Changes of the expression level of marker gene Cyp17a1
CCOc1ccc(NC(C)=O)cc1 [GTXC_Phe, Phenacetin]	1,82
CC(C)CCCCCCCOC(=O)c1ccccc1C(=O)OCCCCCCCC(C)C [NC_DIDP, Diisodecyl phthalate]	-1,22
CCCCC(CC)COC(=O)c1ccccc1C(=O)OCC(CC)CCCC (stereo not shown) [NGTXC_DEHP, Di(2-ethylhexyl)phthalate]	2,49
CC/C(=C(/CC)c1ccc(O)cc1)c1ccc(O)cc1 [NGTXC_DES, Diethylstillbestrol]	10,74
CCC1(c2ccccc2)C(=O)NC(=O)NC1=O [NGTXC_PBB, Phenobarbital]	2,24

same assay, conditions: mouse liver, 7 days exposure, one animal per table line (suffix of Exposure label = animal number); negative value = underexpression

Compound	Fold Change of expression of Cyp17a1 in individual animals
CCOc1ccc(NC(C)=O)cc1 [GTXC_Phe, Phenacetin]	1,929473 and -1,08575 and 2,976794 and 2,054986
CC(C)CCCCCCCOC(=O)c1ccccc1C(=O)OCCCCCCCC(C)C [NC_DIDP, Diisodecyl phthalate]	-1,67941 and 2,746697 and -2,01664 and -1,81914
CCCCC(CC)COC(=O)c1ccccc1C(=O)OCC(CC)CCCC (stereo not shown) [NGTXC_DEHP, Di(2-ethylhexyl)phthalate]	6,253363 and 1,806164 and 1,292719 and 2,626167
CC/C(=C(/CC)c1ccc(O)cc1)c1ccc(O)cc1 [NGTXC_DES, Diethylstillbestrol]	9,417864 and 18,44632 and 6,256012 and 12,22566
CCC1(c2ccccc2)C(=O)NC(=O)NC1=O [NGTXC_PBB, Phenobarbital]	1,987088 and 1,966993 and 2,933095 and 2,191937

test system: LOC75771; assay: Expression level of marker gene LOC75771 in liver of mice exposed for 7 days (microarray); conditions: mouse liver, 7 days exposure, average of 3 - 4 independent repeat experiments; negative value = underexpression (negative inverse of Ratio); dose and route per compound in Table 8

Compound	Average Fold Changes of the expression level of marker gene LOC75771
CC(C)CCCCCCCOC(=O)c1ccccc1C(=O)OCCCCCCCC(C)C [NC_DIDP, Diisodecyl phthalate]	1,26
CCCCC(CC)COC(=O)c1ccccc1C(=O)OCC(CC)CCCC (stereo not shown) [NGTXC_DEHP, Di(2-ethylhexyl)phthalate]	1,12
CC/C(=C(/CC)c1ccc(O)cc1)c1ccc(O)cc1 [NGTXC_DES, Diethylstillbestrol]	-1,06
CCC1(c2ccccc2)C(=O)NC(=O)NC1=O [NGTXC_PBB, Phenobarbital]	1,17

same assay, conditions: mouse liver, 7 days exposure, one animal per table line (suffix of Exposure label = animal number); negative value = underexpression

Compound	Fold Change of expression of LOC75771 in individual animals
CCOc1ccc(NC(C)=O)cc1 [GTXC_Phe, Phenacetin]	1,462697 and 1,408953 and 1,858825 and 1,503018
CC(C)CCCCCCCOC(=O)c1ccccc1C(=O)OCCCCCCCC(C)C [NC_DIDP, Diisodecyl phthalate]	1,468884 and 1,270453 and 1,155297 and 1,177232
CCCCC(CC)COC(=O)c1ccccc1C(=O)OCC(CC)CCCC (stereo not shown) [NGTXC_DEHP, Di(2-ethylhexyl)phthalate]	1,152676 and 1,339443 and 1,013056 and 1,023425
CC/C(=C(/CC)c1ccc(O)cc1)c1ccc(O)cc1 [NGTXC_DES, Diethylstillbestrol]	-1,13239 and -1,07708 and 1,027336 and -1,04436
CCC1(c2ccccc2)C(=O)NC(=O)NC1=O [NGTXC_PBB, Phenobarbital]	1,084573 and 1,085274 and 1,34375 and 1,18945

test system: 9030619P08Rik; assay: Expression level of marker gene 9030619P08Rik in liver of mice exposed for 7 days (microarray); conditions: mouse liver, 7 days exposure, average of 3 - 4 independent repeat experiments; negative value = underexpression (negative inverse of Ratio); dose and route per compound in Table 8

Compound	Average Fold Changes of the expression level of marker gene 9030619P08Rik
CC(C)CCCCCCCOC(=O)c1ccccc1C(=O)OCCCCCCCC(C)C [NC_DIDP, Diisodecyl phthalate]	1,19
CCCCC(CC)COC(=O)c1ccccc1C(=O)OCC(CC)CCCC (stereo not shown) [NGTXC_DEHP, Di(2-ethylhexyl)phthalate]	3,11
CC/C(=C(/CC)c1ccc(O)cc1)c1ccc(O)cc1 [NGTXC_DES, Diethylstillbestrol]	8,00
CCC1(c2ccccc2)C(=O)NC(=O)NC1=O [NGTXC_PBB, Phenobarbital]	15,09

same assay, conditions: mouse liver, 7 days exposure, one animal per table line (suffix of Exposure label = animal number); negative value = underexpression

Compound	Fold Change of expression of 9030619P08Rik in individual animals
CCOc1ccc(NC(C)=O)cc1 [GTXC_Phe, Phenacetin]	2,591988 and 1,278319 and 1,436254 and 4,17095
CC(C)CCCCCCCOC(=O)c1ccccc1C(=O)OCCCCCCCC(C)C [NC_DIDP, Diisodecyl phthalate]	1,367458 and -2,48269 and 1,316609 and 2,807593
CCCCC(CC)COC(=O)c1ccccc1C(=O)OCC(CC)CCCC (stereo not shown) [NGTXC_DEHP, Di(2-ethylhexyl)phthalate]	1,421539 and 3,741746 and 4,049144 and 4,353386
CC/C(=C(/CC)c1ccc(O)cc1)c1ccc(O)cc1 [NGTXC_DES, Diethylstillbestrol]	3,399244 and 17,02687 and 10,00524 and 7,062258
CCC1(c2ccccc2)C(=O)NC(=O)NC1=O [NGTXC_PBB, Phenobarbital]	10,68519 and 17,28227 and 19,31769 and 14,53071
